Laboratory results from patent US5328909A, “Cyclopropenone derivatives” (Mitsubishi Kasei Corporation, priority 1991, dated 1994).
Counter-ions that a name gives are not always drawn.

Target: T1, m-calpain (Rattus norvegicus, UniProt Q07009)
T1 construct: m-calpain was purified from rat brain; from tissue; host or cells: rat brain
T1 sequence (Q07009 20-700 limits assumed): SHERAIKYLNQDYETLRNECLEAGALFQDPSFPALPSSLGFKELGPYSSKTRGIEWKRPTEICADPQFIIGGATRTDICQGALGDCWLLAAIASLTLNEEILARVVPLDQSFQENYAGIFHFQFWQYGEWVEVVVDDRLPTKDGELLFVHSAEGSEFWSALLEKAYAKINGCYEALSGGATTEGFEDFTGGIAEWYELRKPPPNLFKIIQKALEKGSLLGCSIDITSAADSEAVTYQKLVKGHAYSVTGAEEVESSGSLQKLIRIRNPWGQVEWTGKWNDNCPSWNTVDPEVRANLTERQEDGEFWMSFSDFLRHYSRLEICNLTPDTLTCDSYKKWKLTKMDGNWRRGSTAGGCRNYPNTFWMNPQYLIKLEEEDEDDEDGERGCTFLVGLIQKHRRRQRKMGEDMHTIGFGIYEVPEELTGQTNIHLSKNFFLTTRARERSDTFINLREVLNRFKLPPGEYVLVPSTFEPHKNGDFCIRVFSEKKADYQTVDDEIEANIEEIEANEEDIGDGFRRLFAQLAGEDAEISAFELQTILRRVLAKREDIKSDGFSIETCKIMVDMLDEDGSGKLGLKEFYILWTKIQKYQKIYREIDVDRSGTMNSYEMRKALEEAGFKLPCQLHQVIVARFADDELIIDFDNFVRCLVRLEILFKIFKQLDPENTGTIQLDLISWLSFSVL
T1 sequence (Q64537 1-270 partner): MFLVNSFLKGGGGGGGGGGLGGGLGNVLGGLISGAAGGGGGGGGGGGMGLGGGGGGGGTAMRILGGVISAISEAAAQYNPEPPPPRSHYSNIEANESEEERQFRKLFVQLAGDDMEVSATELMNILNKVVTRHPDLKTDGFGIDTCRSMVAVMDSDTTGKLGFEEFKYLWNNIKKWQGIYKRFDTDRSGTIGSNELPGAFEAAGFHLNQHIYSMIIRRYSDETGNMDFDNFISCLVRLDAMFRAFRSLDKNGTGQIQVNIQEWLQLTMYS
Test: Thiol protease inhibitory activity against m-calpain purified from rat brain
Format: biochemical
Conditions: Table 4; rat brain enzyme; read-out: Inhibitory activity against m-calpain IC50
Description: Inhibitory activity against papain (P-3125, Sigma) and cathepsin B (C-6286, Sigma) was assayed according to the method described in a literature [Biochemical Journal, 201, 189 (1982)]. Capthesin L was purified from rat kidney according to the method in a literature [Journal of Biochemistry, 100, 35 (1986)], and the inhibitory activity against it was assayed in the same manner as described in the above literature for cathepsin B. Further, m-calpain was purified from rat brain according to a known method [Journal of Biological Chemistry, 254, p.3210 (1984)] and the inhibitory activity against it was assayed by a method described in a literature [Journal of Biological Chemistry, 259, 12489 (1984)]. The results are showing in Tables 3 and 4. It is evident from Tables 3 and 4 that the compounds in the present invention have a potent inhibitory activity against thiol proteases such as papain, cathepsin B, cathepsin L, m-calpain or the like.

Row | SMILES | IC50 [nM]
1 | CC(C)C[C@H](NC(=O)c1ccnc(Cl)c1)C(=O)N[C@@H](C(C)C)[C@@H](O)c1c(-c2ccccc2)c1=O [73 (No. 216), 2-[(1s, 2S)-2-{(S)-2-(2-chloroisonicotinoylamino)-4-methylvalerylamino}-1-hydroxy-3-methylbutyl]-3-phenylcyclopropenone] | 1400
2 | CC(C)C[C@H](NC(=O)c1ccc2ccccc2n1)C(=O)N[C@@H](C(C)C)[C@@H](O)c1c(-c2ccccc2)c1=O [74 (No. 219), 2-[(1S, 2S)-1-hydroxy-3-methyl-2-{(S)-4-methyl-2-(2-quinolylcarbonylamino)valerylamino}butyl-3-phenylcyclopropenone hydrochloride] | 800
3 | CC(C)C[C@H](NC(=O)NCc1ccccc1)C(=O)N[C@@H](C(C)C)[C@@H](O)c1c(-c2ccccc2)c1=O [75 (No. 225), 2-[(1S, 2S)-2-{(S)-2-(3-benzylureido)-4-methylvalerylamino}-1-hydroxy-3-methylbutyl]-3-phenylcyclopropenone] | 3300
4 | CC(C)C[C@H](NC(=O)Nc1ccccc1)C(=O)N[C@@H](C(C)C)[C@@H](O)c1c(-c2ccccc2)c1=O [76 (No. 227)] | 4600
5 | CCCS(=O)(=O)N[C@@H](CC(C)C)C(=O)N[C@@H](C(C)C)[C@@H](O)c1c(-c2ccccc2)c1=O [77 (No. 232), 2-[(1S, 2S)-1-hydroxy-3-methyl-2-((S)-4-methyl-2-propylsulfonylaminovalerylamino)butyl]-3-phenylcyclopropenone] | 950
6 | CC(C)C[C@H](NS(=O)(=O)Cc1ccccc1)C(=O)N[C@@H](C(C)C)[C@@H](O)c1c(-c2ccccc2)c1=O [78 (No. 237), 2-[(1S, 2S)-2-((S)-2-benzylsulfonylamino-4-methylvalerylamino)-1-hydroxy-3-methylbutyl]-3-phenylcyclopropenone] | 440
7 | CC(C)C[C@H](NS(=O)(=O)Cc1ccccc1)C(=O)N[C@@H](C(C)C)[C@H](O)c1c(-c2ccccc2)c1=O [79 (No. 237), 2-[(1R, 2S)-2-((S)-2-benzylsulfonylamino-4-methylvalerylamino)-1-hydroxy-3-methylbutyl]-3-phenylcyclopropenone] | 1800
8 | CC(C)C[C@H](NS(=O)(=O)c1ccccc1)C(=O)N[C@@H](C(C)C)[C@@H](O)c1c(-c2ccccc2)c1=O [80 (No. 239), 2-[(1S, 2S)-1-hydroxy-3-methyl-2-((S)-4-methyl-2-phenylsulfonylaminovalerylamino)butyl]-3-phenylcyclopropenone] | 350
9 | CC(C)C[C@H](NS(=O)(=O)c1ccccc1)C(=O)N[C@@H](C(C)C)[C@H](O)c1c(-c2ccccc2)c1=O [81 (No. 239), 2-[(1R, 2S)-1-hydroxy-3-methyl-2-((S)-4-methyl-2-phenylsulfonylaminovalerylamino)butyl]-3-phenylcyclopropenone] | 4300
10 | CC(C)C[C@H](NS(=O)(=O)c1ccc(F)cc1)C(=O)N[C@@H](C(C)C)[C@@H](O)c1c(-c2ccccc2)c1=O [83 (No. 245), 2-[(1S, 2S)-2-{(S)-2-(4-fluorophenylsulfonylamino)-4-methylvalerylamino}-1-hydroxy-3-methylbutyl]-3-phenylcyclopropenone] | 3000
11 | CC(C)C[C@H](NS(=O)(=O)c1ccccc1Cl)C(=O)N[C@@H](C(C)C)[C@@H](O)c1c(-c2ccccc2)c1=O [84 (No. 246), 2-[(1S, 2S)-2-{(S)-2-(2-chlorophenylsulfonylamino)-4-methylvalerylamino}-1-hydroxy-3-methylbutyl]-3-phenylcyclopropenone] | 850
12 | CC(C)C[C@H](NS(=O)(=O)c1ccc(Cl)cc1)C(=O)N[C@@H](C(C)C)[C@@H](O)c1c(-c2ccccc2)c1=O [85 (No. 248), 2-[(1S, 2S)-2-{(S)-2-(4-chlorophenylsulfonylamino)-4-methylvalerylamino}-1hydroxy-3-methylbutyl]-3-phenylcyclopropenone] | 840
13 | Cc1ccc(S(=O)(=O)N[C@@H](CC(C)C)C(=O)N[C@@H](C(C)C)[C@@H](O)c2c(-c3ccccc3)c2=O)cc1 [86 (No. 251), 2-[(1S, 2S)-1-hydroxy-3-methyl-2-{(S)-4-methyl-2-(4-trisulfonylamino)valerylamino}butyl]-3-phenylcyclopropenone] | 750
14 | COc1ccc(S(=O)(=O)N[C@@H](CC(C)C)C(=O)N[C@@H](C(C)C)[C@@H](O)c2c(-c3ccccc3)c2=O)cc1 [87 (No. 257), 2-[(1S, 2S)-1-hydroxy-2-{(S)-2-(4-methoxyphenylsulfonylamino)-4-methylvalerylamino}-3-methylbutyl]-3-phenylcyclopropenone] | 1000
15 | CC(C)C[C@H](NS(=O)(=O)c1cccc2ccccc12)C(=O)N[C@@H](C(C)C)[C@@H](O)c1c(-c2ccccc2)c1=O [88 (No. 259), 2-[(1S, 2S)-1-hydroxy-3-methyl-2-{(S)-4-methyl-2-(1-naphtylsulfonylamino)valerylamino}butyl]-3-phenylcyclopropenone] | 650
16 | CC(C)C[C@H](NS(=O)(=O)c1ccc2ccccc2c1)C(=O)N[C@@H](C(C)C)[C@@H](O)c1c(-c2ccccc2)c1=O [89 (No. 260), 2-[(1S, 2S)-1-hydroxy-3-methyl-2-{(S)-4-methyl-2-(2-naphtylsulfonylamino)valerylamino}butyl]-3-phenylcyclopropenone] | 460
17 | CC(C)C[C@H](NS(=O)(=O)c1cccc2cccnc12)C(=O)N[C@@H](C(C)C)[C@@H](O)c1c(-c2ccccc2)c1=O [91 (No. 265), 2-[(1S, 2S)-1-hydroxy-3-methyl-2-{(S)-4-methyl-2-(8-quinolylsulfonylamino)valerylamino}butyl]-3-phenylcyclopropenone] | 1900
18 | CC(C)C[C@H](NC(=O)OCC1CCCCC1)C(=O)N[C@@H](C(C)C)[C@@H](O)c1c(-c2ccc(F)cc2)c1=O [105 (No. 311), 2-[(1S, 2S)-2-((S)-2-cyclohexylmethoxycarbonylamino-4-methylvalerylamino)-1-hydroxy-3-methylbutyl]-3-(4-fluorophenyl)cyclopropenone] | 1500
19 | CC(C)C[C@H](NS(=O)(=O)c1ccccc1)C(=O)N[C@@H](C(C)C)[C@@H](O)c1c(-c2ccc(F)cc2)c1=O [111 (No. 317), 2-(4-fluorophenyl)-3-[(1S, 2S)-1-hydroxy-3-methyl-2-((S)-4-methyl-2-phenylsulfonylaminovalerylamino)butyl]cyclopropenone] | 2900
20 | CCCC[C@H](NC(=O)[C@H](CC(C)C)NC(=O)OCc1ccccc1)C(O)c1c(-c2ccc(F)cc2)c1=O (stereo partly drawn) [112 (No. 319), 2[(2S)-2-((S)-2-benzyloxycarbonylamino-4-methylvalerylamino)-1-hydroxyhexyl]-3-(4-fluorophenyl)cyclopropenone] | 4300
21 | CC(C)C[C@H](NC(=O)OCC1CCCCC1)C(=O)N[C@@H](CC(C)C)C(=O)N[C@@H](C(C)C)[C@@H](O)c1c(-c2ccccc2)c1=O [118 (No. 467), 2-[(1S, 2S)-2-{(S)-2-((S)-2-cyclohexylmethoxycarbonylamino-4-methylvalerylamino)-4-methylvalerylamino}-1-hydroxy-3-methylbutyl]-3-phenylcyclopropenone] | 840
22 | CC(C)C[C@H](NC(=O)[C@H](Cc1ccccc1)NC(=O)OCc1ccccc1)C(=O)N[C@@H](C(C)C)[C@@H](O)c1c(-c2ccccc2)c1=O [120 (No. 478), 2-[(1S, 2S)-2-{(S)-2-((S)-2-benzyloxycarbonylamino-3-phenylpropionylamino)-4-methylvalerylamino}-1-hydroxy-3-methylbutyl]-3-phenylcyclopropenone] | 1200
